According to patent US10450421B2, “Synthesis of multiarm poly[(R)-3-hydroxybutyrate] and its derivatives” (AGENCY FOR SCIENCE, TECHNOLOGY AND RESEARCH, priority 2015, dated 2019):
Ends that are not written are not given here.

What was measured:
S. aureus = test: Antimicrobial test, MIC against S. aureus; assay type: cell-based; conditions: Gram-positive bacteria S. aureus (n = 2)
Procedure: (§1) The solutions based on the Q-PHB-PDMAEMA were tested for efficacy in killing clinically significant pathogens: the […] and Gram-negative bacteria (E. coli).

E. coli = test: Antimicrobial test, MIC against E. coli; assay type: cell-based; conditions: Gram-negative bacteria E. coli (n = 2)
Procedure: as §1

For GIGKFLHSAGKFGKAFVGEIMKS [Magainin I], the MIC (S. aureus) was 130 µg/mL and the MIC (E. coli) was 130 µg/mL.
